Results: patent US8741843B2, “Compositions and methods for inducing angiogenesis” (priority 2006, dated 2014)
“Also recorded” adds a separate entry of the source.

Key:
endothelial cells [1] = test: Hypoxia-induced apoptosis of endothelial cells (Annexin V FITC/PI FACS); format: cell-based, human; settings: for effect on hypoxia-induced apoptosis of endothelial cells / percent apoptosis (PI/Annexin V): 24 hours hypoxia; for effect on hypoxia-induced apoptosis of endothelial cells: peptides 10 ng/ml; for percent apoptosis (PI/Annexin V): FIGS. 24a-d, hypoxia alone 79.3%
Method: FIG. 17 is a histogram depicting the effect of ADOPep1 on hypoxia-induced apoptosis of endothelial cells. Endothelial cells were exposed for 24 hours hypoxia in the presence of endothelial cell growth medium supplemented with 5% fetal calf serum (FCS), followed by incubation under hypoxia conditions with ADOPep1 (10 ng/ml) or anti-GRP78 antibody (100 ng/ml). Cells (100,000/tube) were incubated with Annexin-V FITC/PI for endothelial cell apoptosis determination. […] Similarly, anti-GRP78 antibody induced a reduction in apoptosis up to 32%.
FIGS. 24a-d are FACS analyses depicting hypoxia induced apoptosis. Endothelial cells were incubated for 24 hours under hypoxia conditions in the absence (FIG. 24a) or presence of 10 ng/ml of ADOPepe1 (FIG. 24b), peptide of Motif A (FIG. 24c) or peptide of motif C (FIG. 24d) and the level of apoptosis was determined using FACS analysis and the PI (shown on the Y axis)/Annexin V (shown on the X axis) markers.
FIG. 25 is a bar graph depicting the inhibition of hypoxia induced apoptosis by ADOPep 1, Motif A and Motif B. Endothelial cells were incubated for 24 hours under hypoxia conditions in the absence or presence of 10 ng/ml of ADOPepe1, Motif A, Motif B or motif C and the level of apoptosis was determined using FACS analysis and quantified as the percent of Annexin V and PI positive cells. The results represent average±standard deviation of 4 independent experiments.
FIGS. 33a-f are representative FACS analyses depicting a specific inhibition of hypoxia-induced apoptosis of endothelial cells by ADOPep1. Endothelial cells in Petri dishes were incubated for 24 hours with 5% FCS in supplement-free endothelial cell growth medium under normoxia (FIGS. 33a and d), exposed to 24 hours hypoxia (Figures c and f) or incubated under normoxia with 100 micromolar per 100,000 cells CoCl2 (FIGS. 33b and e), in the absence (FIGS. 33a-c) or presence (FIGS. 33d-f) of 10 ng/ml Adopep1 peptide (for 24 hours). Cells were trypsinized and immediately re-suspended in PBS with 5% FCS and 0.1% Na-azide. Samples containing 100,000 cells were tested for apoptosis using the Annexin-FITC (X axis) and propidium iodide (Y axis) kit (Bender Medsystems, Vienna, Austria), according to manufacturer's instructions. Results were analyzed by FACScan (Beckton Dickinson).
EC were incubated for 24 hours with 5% FCS in EC growth media in Petri dishes plates followed by 24 hours incubation under hypoxia conditions with ADOPep1 (10 ng/ml), anti GRP78 antibody (Santa Cruz Biotechnology, Calif., USA) (1 microgram/ml) or recombinant VEGF (10 ng/ml). The Annexin V FITC/PI detects the phosphatidylserin on the apoptotic cells using flow cytometry. Human Annexin V-FITC kit (Bender Medsystems, Vienna, Austria) was used for the measurement of EC apoptosis percentage following manufacturer's instructions. Samples were analyzed using a fluorescence activated cell sorter (FACScan Beckton Dickinson, Calif., USA).

[2] = target: T1, GRP78 on endothelial cells (Homo sapiens, UniProt P11021); test: FACS competition of peptides with GRP78 polyclonal antibody on endothelial cells under hypoxia; format: binding; settings: hypoxic conditions; for inhibition of anti GRP78 binding to endothelial cells: ten micrograms of peptide
T1 construct: endogenous in cells; host or cells: HUVEC / endothelial cells from umbilical cords, under normoxia or hypoxia
Method: Endothelial cells were cultured for 24 hours under hypoxic conditions in endothelial cell growth medium. Cells were removed by trypsin and incubated for 1 hour on ice with increasing concentrations of AdoPep1, Motif A and Motif C peptides. GRP78 polyclonal antibody (2 μg/100,000) was added to the cells for 2 hours on ice. Anti-goat FITC (Jackson ImmunoResearch) was added for 30 minutes on ice. IgG1-FITC was used as the isotype control. The samples were analyzed with a FACScan (Beckton Dickinson). […] FIG. 28d depicts the average percent binding of GRP78 to endothelial cells as a function of peptide amount as determined by 2 independent experiments.

[3] = system: endothelial cells (HUVEC); test: Migration of endothelial cells under hypoxia (Chemicon QCM 96-well Migration Assay); format: cell-based, human; settings: 5 hours hypoxia, 10 ng/ml
Method: FIG. 6 is a graph depicting migration of endothelial cells under hypoxia conditions. Endothelial cells (25,000) were incubated in endothelial cells growth medium free supplements in the migration chamber. ADOPep1 (SEQ ID NO:2), 2 (SEQ ID NO:3) and 3 (SEQ ID NO:4) were added to the feeder tray of the migratory kit at 1, 10 and 100 ng/ml for 5 hours hypoxia. Results were determined by a fluorescence ELISA reader and expressed as increase in percentage migration in Relative fluorescence Units.
FIGS. 26a-b are graphs depicting induction of endothelial cell migration under hypoxia by the ADOPEP motifs. Endothelial cells were incubated for 5 hours under hypoxia conditions in the presence of increasing concentrations of ADOPep1 (red line), peptide motif A (dark blue line), peptide motif B (green line) or peptide motif C (light blue line) and the migration of endothelial cells was detected. FIG. 26a—experiment 1; FIG. 26b—experiment 2.
Endothelial cell migration was evaluated by the Chemicon QCM 96-well Migration Assay (Chemicon International, Calif., USA) according to manufacturer's instructions. This kit utilizes a membrane with an 8 μm pore size. Migratory cells on the bottom of the insert membrane are dissociated from the membrane when incubated with cell detachment buffer provided by the kit. […] For the migration assay, HUVEC from passage 3 were incubated in endothelial cell (EC) growth medium free of supplements. After trypsinization, 25,000 EC were incubated in the migration chamber. ADOPeps were added at concentrations of 1, 10 and 100 ng/ml in the feeder tray for chemoattractant migration assay. Time of incubation was 5 hours for endothelial cells under hypoxic conditions. Results were determined in a Fluorescent ELISA reader at 480/520 nm.

endothelial cells [4] = test: Tube formation of endothelial cells on Cultrex Basement Membrane Extract; format: cell-based, human; settings: 10 ng/ml, 18 hours, starvation and normoxic conditions
Method: FIG. 27 is a graph depicting induction of tube formation using AdoPep1 and Motif A (SEQ ID NO:7) but not the scrambled sROY peptide. Endothelial cells were incubated in media without supplements for 24 hours, and 50,000 cells were then transferred in 500 μl medium to 24-well plates precoated with 250 μl Cultrex Basement Membrane Extract (with reduced growth factors) (R&D Systems, Minneapolis, Minn., USA). AdoPep1, Motif A and scrambled sROY peptides were added at an optimal concentration of 10 ng/ml (based on preliminary findings), and the slides were examined by light microscopy after 18 hours incubation. The results represent average±SD of three experiments using 3 different cords. The length of the network of connected cells (tube formation) was measured in micrometers in 5 different areas of each well using Image-Pro Plus Image software (Media Cybernetics, Silver Spring, Md., USA).

T1 sequence (P11021 19-654): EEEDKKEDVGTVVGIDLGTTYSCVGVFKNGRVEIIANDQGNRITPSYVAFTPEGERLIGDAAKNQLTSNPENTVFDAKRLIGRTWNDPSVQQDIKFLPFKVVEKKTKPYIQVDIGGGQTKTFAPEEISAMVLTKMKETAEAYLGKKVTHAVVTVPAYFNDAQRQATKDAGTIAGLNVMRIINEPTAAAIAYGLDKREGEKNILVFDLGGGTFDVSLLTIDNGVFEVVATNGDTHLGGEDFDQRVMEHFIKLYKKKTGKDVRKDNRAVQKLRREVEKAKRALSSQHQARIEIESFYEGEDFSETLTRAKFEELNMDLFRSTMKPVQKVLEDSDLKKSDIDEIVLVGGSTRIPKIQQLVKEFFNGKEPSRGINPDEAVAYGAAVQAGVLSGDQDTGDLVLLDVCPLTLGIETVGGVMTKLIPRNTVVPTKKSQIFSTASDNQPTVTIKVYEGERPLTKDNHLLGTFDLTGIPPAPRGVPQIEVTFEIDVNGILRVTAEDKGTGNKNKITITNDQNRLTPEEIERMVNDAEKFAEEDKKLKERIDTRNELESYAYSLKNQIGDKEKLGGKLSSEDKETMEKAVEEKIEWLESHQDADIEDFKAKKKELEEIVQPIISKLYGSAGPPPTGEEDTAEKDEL

Row | inhibition of anti GRP78 binding to endothelial cells [2] | Substance | effect on hypoxia-induced apoptosis of endothelial cells (endothelial cells [1]) | percent apoptosis (PI/Annexin V) (endothelial cells [1]; 10 ng/ml) | inhibition of anti GRP78 binding to endothelial cells (in words) [2] | migration of endothelial cells [3] | tube formation (length of the network of connected cells) (endothelial cells [4]) | more efficient in decreasing apoptosis as compared to the anti-GRP78 antibody (endothelial cells [1]; FIG. 17, hypoxia) | percent apoptosis of endothelial cells (Annexin-V/PI) (endothelial cells [1]; FIG. 17, hypoxia, ADOPep1 10 ng/ml, anti-GRP78 antibody 100 ng/ml) | inhibition of hypoxia induced apoptosis (endothelial cells [1]; FIG. 34, 24 hours hypoxia, 10 ng/ml) | migration of endothelial cells ([3]; listed as ADOPep 1)
1 | ~60% | HWRRP [Motif A, 5 amino acid motif peptide] | capable of inhibiting the hypoxia induced apoptosis; also recorded: significant inhibition of hypoxia induced apoptosis | 35.8% | inhibit the binding of GRP78 to endothelial cells | induced endothelial cell migration | significantly increased the length of the network of connected cells | – | – | – | –
2 | approximately 80% | HWRRAHLLPRLP [ADOPep1, ADAM15 derived peptide, amino acids 286-297 of the metalloprotease domain] | prevented apoptosis to levels which are similar to those seen under normoxic conditions; also recorded: capable of inhibiting the hypoxia induced apoptosis; also recorded: remarkable decrease in the stained cells; also recorded: significant inhibition of hypoxia induced apoptosis; also recorded: a significant fraction of hypoxia-induced apoptosis was inhibited | 28.6% | inhibit the binding of GRP78 to endothelial cells | most significant increase in EC migration; also recorded: induced endothelial cell migration | significantly increased the length of the network of connected cells | 29% | 25% | approximately 40% | induced increase in percent of migration
